Earlier results in PMC6838683, “Discovery of Human Signaling Systems: Pairing Peptides to G Protein-Coupled Receptors” (Cell, 2019).
Where two headings read alike, the source gives them in different places. No end group written: not given here.

Test system: human GPCRs
Set-up: method as in Guide to Pharmacology database
Conditions: max reported value, ref Guide to Pharmacology database, cited from earlier work
Source text: Supplement mmc1.xlsx, sheet "HumanGPCRLigands" | column: pKi_value; pKd_value; pEC50_value; pIC50_value

[1] = receptor npbw1_human (NPBWR1, P48145)
[2] = receptor npbw2_human (NPBWR2, P48146)
[3] = receptor NPY4R (npy4r_human, P50391)
[4] = receptor NPY5R (npy5r_human, Q15761)
[5] = receptor OPRL1 (oprx_human, P41146)
[6] = receptor RXFP1 (rxfp1_human, Q9HBX9)
[7] = receptor RXFP2 (rxfp2_human, Q8WXD0)
[8] = receptor RXFP3 (rl3r1_human, Q9NSD7)
[9] = receptor RXFP4 (rl3r2_human, Q8TDU9)
[10] = receptor crfr2_human (CRHR2, Q13324)
[11] = receptor UTS2R (ur2r_human, Q9UKP6)
[12] = receptor OPRK1 (oprk_human, P41145)
[13] = receptor CCR4 (ccr4_human, P51679)
[14] = receptor CCR1 (ccr1_human, P32246)
[15] = receptor CCR5 (ccr5_human, P51681)
[16] = receptor CCR3 (ccr3_human, P51677)

For “neuropeptide B-29 (WYKPAAGHSSYSVGRAAGLLSGLRRSPYA; not fully specified; UniProt Q8NG41 25-53, looked up)”, the pIC50_value (receptor NPBWR2 (npbw2_human, P48146)) is listed as 9 and the pIC50_value [1] is listed as 9.5.

For neuropeptide FF, the pKi_value (receptor npff1_human (NPFFR1, Q9GZQ6)) is listed as 9.9 and the pKi_value (receptor npff2_human (NPFFR2, Q9Y5X5)) is listed as 9.7.

In the case of “neuropeptide W-23 (WYKHVASPRYHTVGRAAGLLMGL)”, the pIC50_value [1] is listed as 10 and the pIC50_value [2] is listed as 9.6.

In the case of “neuropeptide W-30 (WYKHVASPRYHTVGRAAGLLMGLRRSPYLW; not fully specified; UniProt Q8N729 33-62, looked up)”, the pIC50_value [1] is listed as 10.6 and the pIC50_value [2] is listed as 9.4.

For neuropeptide Y, the pKi_value [3] is given as 8 and the pKi_value [4] is given as 9.1.

For nociceptin/orphanin FQ, the pEC50_value [5] is listed as 9.8 and the pKi_value [5] is listed as 10.4.

For “orexin-A (QPLPDCCRQKTCSCRLYELLHGAGNHAAGILTL; not fully specified; ends and bridges not checked; UniProt O43612 34-66, looked up)”, the pEC50_value (receptor HCRTR1 (ox1r_human, O43613)) is listed as 10.2 and the pEC50_value (receptor HCRTR2 (ox2r_human, O43614)) is listed as 10.

In the case of pancreatic polypeptide, the pKi_value [3] is listed as 10.9 and the pKi_value [4] is listed as 8.

In the case of relaxin, the pEC50_value [6] is given as 10.4, the pKi_value [6] is given as 10.2 and the pEC50_value [7] is given as 9.1. The pKi_value [7] was 8.5, the pEC50_value [8] was 8.4 and the pKd_value [8] was 10.

For relaxin-3, the pKi_value [6] is given as 8, the pKi_value [7] is given as 7 and the pEC50_value [8] is given as 9.9. For the same molecule, the pIC50_value [8] was 9.6, the pKi_value [8] was 8.9 and the pEC50_value [9] was 9. The pIC50_value [9] was 9 and the pKi_value [9] was 9.

For secretin, the pEC50_value (receptor sctr_human (SCTR, P47872)) is given as 9.7.

In the case of “urocortin 1 (DNPSLSIDLTFHLLRTLLELARTQSQRERAEQNRIIFDSV; ends and bridges not checked; UniProt P55089 83-122, looked up)”, the pKd_value (receptor crfr1_human (CRHR1, P34998)) is given as 9.5 and the pKd_value [10] is given as 9.6.

In the case of “urocortin 2 (IVLSLDVPIGLLQILLEQARARAAREQATTNARILARVGHC; ends and bridges not checked; UniProt Q96RP3 72-112, looked up)”, the pKd_value [10] is listed as 8.6.

In the case of “urocortin 3 (FTLSLDVPTNIMNLLFNIAKAKNLRAQAAANAHLMAQI; not fully specified; ends and bridges not checked; UniProt Q969E3 120-157, looked up)”, the pKd_value [10] is given as 8.

For urotensin II-related peptide, the pIC50_value [11] is given as 8.6 and the pKd_value [11] is given as 9.6.

In the case of “α-neoendorphin (YGGFLRKYPK; Alpha-neoendorphin; UniProt P01213 175-184, looked up)”, the pKi_value [12] is given as 10.2.

In the case of β-CGRP, the pEC50_value (receptor calcr_human (CALCR), Calcitonin receptors, Class B1 (Secretin)) is given as 7.2.

In the case of β-endorphin, the pKi_value (receptor OPRD1 (oprd_human, P41143)) is listed as 8.3 and the pKi_value [12] is listed as 7.9.

In the case of β-neoendorphin (YGGFLRKYP), the pKi_value [12] is given as 7.9.

For γ-MSH, the pKd_value (receptor mc3r_human (MC3R, P41968)) is given as 8.5.

B1: CCL17 (protein, UniProt Q92583 24-94, looked up)
C-C motif chemokine 17: ARGTNVGRECCLEYFKGAIPLRKLKTWYQTSEDCSRDAIVFVTVQGRAICSDPNNKRVKNAVKYLQSLERS
For B1, the pIC50_value [13] is given as 8.7.

B2: CCL22 (protein, UniProt O00626 25-93, looked up)
C-C motif chemokine 22: GPYGANMEDSVCCRDYVRYRLPLRVVKHFYWTSDSCPRPGVVLLTFRDKEICADPRVPWVKMILNKLSQ
For B2, the pIC50_value [13] is given as 9.2.

B3: CXCL16 (protein, UniProt Q9H2A7 30-254, looked up)
C-X-C motif chemokine 16: NEGSVTGSCYCGKRISSDSPPSVQFMNRLRKHLRAYHRCLYYTRFQLLSWSVCGGNKDPWVQELMSCLDLKECGHAYSGIVAHQKHLLPTSPPISQASEGASSDIHTPAQMLLSTLQSTQRPTLPVGSLSSDKELTRPNETTIHTAGHSLAAGPEAGENQKQPEKNAGPTARTSATVPVLCLLAIIFILTAALSYVLCKRRRGQSPQSSPDLPVHYIPVAPDSNT
In the case of B3, the pKd_value (receptor CXCR6 (cxcr6_human, O00574)) is listed as 9.

B4: CCL14 (protein, UniProt Q16627 20-93, looked up)
C-C motif chemokine 14: TKTESSSRGPYHPSECCFTYTTYKIPRQRIMDYYETNSQCSKPGIVFITKRGHSVCTNPSDKWVQDYIKDMKEN
In the case of B4, the pKi_value [14] is listed as 7.4 and the pKi_value [15] is listed as 7.2.

B5: CCL23 (protein, UniProt P55773 22-120, looked up)
C-C motif chemokine 23: RVTKDAETEFMMSKLPLENPVLLDRFHATSADCCISYTPRSIPCSLLESYFETNSECSKPGVIFLTKKGRRFCANPSDKQVQVCMRMLKLDTRIKTRKN
For B5, the pKi_value [14] is listed as 8.9.

B6: annexin I (protein, UniProt P04083 2-346, looked up)
Annexin A1: AMVSEFLKQAWFIENEEQEYVQTVKSSKGGPGSAVSPYPTFNPSSDVAALHKAIMVKGVDEATIIDILTKRNNAQRQQIKAAYLQETGKPLDETLKKALTGHLEEVVLALLKTPAQFDADELRAAMKGLGTDEDTLIEILASRTNKEIRDINRVYREELKRDLAKDITSDTSGDFRNALLSLAKGDRSEDFGVNEDLADSDARALYEAGERRKGTDVNVFNTILTTRSYPQLRRVFQKYTKYSKHDMNKVLDLELKGDIEKCLTAIVKCATSKPAFFAEKLHQAMKGVGTRHKALIRIMVSRSEIDMNDIKAFYQKMYGISLCQAILDETKGDYEKILVALCGGN
For B6, the pKd_value (receptor fpr2_human (FPR2, P25090)) is given as 6.5.

B7: CCL15 (protein, UniProt Q16663 22-113, looked up)
C-C motif chemokine 15: QFTNDAETELMMSKLPLENPVVLNSFHFAADCCTSYISQSIPCSLMKSYFETSSECSKPGVIFLTKKGRQVCAKPSGPGVQDCMKKLKPYSI
In the case of B7, the pIC50_value [14] is listed as 7.9 and the pIC50_value [16] is listed as 8.6.

B8: CCL21 (protein, UniProt O00585 24-134, looked up)
C-C motif chemokine 21: SDGGAQDCCLKYSQRKIPAKVVRSYRKQEPSLGCSIPAILFLPRKRSQAELCADPKELWVQQLMQHLDKTPSPQKPAQGCRKDRGASKTGKKGKGSKGCKRTERSQTPKGP
For B8, the pIC50_value (receptor CCR7 (ccr7_human, P32248)) is listed as 9.3.

B9: CCL8 (protein, UniProt P80075 24-99, looked up)
C-C motif chemokine 8: QPDSVSIPITCCFNVINRKIPIQRLESYTRITNIQCPKEAVIFKTKRGKEVCADPKERWVRDSMKHLDQIFQNLKP
For B9, the pIC50_value (receptor CCR2 (ccr2_human, P41597)) is listed as 8.6 and the pKi_value [15] is listed as 9.3.

B10: CCL24 (protein, UniProt O00175 27-119, looked up)
C-C motif chemokine 24: VVIPSPCCMFFVSKRIPENRVVSYQLSSRSTCLKAGVIFTTKKGQQFCGDPKQEWVQRYMKNLDAKQKKASPRARAVAVKGPVQRYPGNQTTC
For B10, the pIC50_value [16] is given as 9.4.

B11: CCL1 (protein, UniProt P22362 24-96, looked up)
C-C motif chemokine 1: KSMQVPFSRCCFSFAEQEIPLRAILCYRNTSSICSNEGLIFKLKRGKEACALDTVGWVQRHRKMLRHCPSKRK
For B11, the pIC50_value (receptor CCR8 (ccr8_human, P51685)) is given as 9.8.

B12: INSL3 (protein, UniProt P51460 21-55; P51460 106-131, looked up)
Insulin-like 3 B chain: LGPAPTPEMREKLCGHHFVRALVRVCGGPRWSTEA
Insulin-like 3 A chain: AAATNPARYCCLSGCTQQDLLTLCPY
For B12, the pKd_value [7] is given as 10.4 and the pKi_value [7] is given as 9.7.

B13: CXCL7 (protein, UniProt P02775 59-128, looked up)
Neutrophil-activating peptide …: AELRCMCIKTTSGIHPKNIQSLEVIGKGTHCNQVEVIATLKDGRKICLDPDAPRIKKIVQKKLAGDESAD
modifications: Neutrophil-activating peptide 2
For B13, the pIC50_value (receptor CXCR2 (cxcr2_human, P25025)) is given as 9.3.

B14: large neuromedin N (protein, UniProt P30990 24-148, looked up)
Large neuromedin N: SDSEEEMKALEADFLTNMHTSKISKAHVPSWKMTLLNVCSLVNNLNSPAEETGEVHEEELVARRKLPTALDGFSLEAMLTIYQLHKICHSRAFQHWELIQEDILDTGNDKNGKEEVIKRKIPYIL
modifications: Large neuromedin N
For B14, the pIC50_value (receptor NTSR1 (ntr1_human, P30989)) is listed as 7.4.

B15: CCL4 (protein, UniProt P13236 24-92, looked up)
C-C motif chemokine 4: APMGSDPPTACCFSYTARKLPRNFVVDYYETSSLCSQPAVVFQTKRSKQVCADPSESWVQEYVYDLELN
For B15, the pKi_value [14] is given as 7.8 and the pKi_value [15] is given as 9.6.
